Source: paper PMC9006931, “Altered Response Pattern following AZD5582 Treatment of SIV-Infected, ART-Suppressed Rhesus Macaque Infants” (Journal of Virology, 2022)

Columns and labels:
SIVmac239 = tested on: SIVmac239; design: method as in PMID 31969707; conditions: adult RMs; cited from earlier work
[1] = tested on: CD4+ T cells from SIV-infected, ART-suppressed adult RMs; assay: Ex vivo viral RNA induction assay, adult CD4+ T cells; format: cell-based, rhesus macaque; conditions: 100 nM, 9 days, in presence of DTG+FTC
Excerpt: Following confirmation of ncNF-κB pathway activation in infant naive and memory CD4^+ T cells ex vivo, we next sought to evaluate SIV reactivation following ex vivo AZD5582 stimulation in CD4^+ T cells isolated from SIV-infected, ART-suppressed infant RMs compared to CD4^+ T cells from SIV-infected, ART-suppressed adult RMs. To do so, we isolated CD4^+ T cells through negative selection from the peripheral blood of five SIV-infected, ART-suppressed adult RMs and five SIV-infected, ART-suppressed infant RMs. Cells were stimulated with either 100 nM AZD5582 or rhesus specific anti-CD2/CD3/CD28 beads (as a positive control) in the presence of ART (DTG+FTC) for 9 days. The supernatant was collected to quantify SIVgag RNA through qPCR as a measure of viral reactivation.
Viable cryopreserved PBMCs from SIV-infected, ART-suppressed infant and adult RMs collected 34 to 97 weeks post ART initiation were thawed, and CD4^+ T cells were enriched by negative selection using the NHP CD4^+ T cell isolation kit (Miltenyi Biotec). […] The viral RNA content of frozen cell-free culture supernatants collected on day 9 was determined using the SIVgag qPCR described above.

[2] = design: method as in PMID 31969707; conditions: adult RMs (n = 7), matched doses, plasma; cited from earlier work
[3] = tested on: ncNF-κB pathway genes BIRC3 and NFkB2; assay: Ex vivo AZD5582 stimulation of sorted naive and memory CD4+ T cells, target gene RT-qPCR; format: cell-based, rhesus macaque; conditions: 1000 nM (n = 6) or 100 nM (n = 4) AZD5582, 24 h
Excerpt: We have previously shown that naive CD4^+ T cells are a major contributor to the viral reservoir in both SIV- and SHIV-infected infant macaques ([10], [11]). We were therefore interested to determine whether the dampened ART viremia that we observed in vivo was due to differential induction of ncNF-kB activation in naive and memory CD4^+ T cells following AZD5582 treatment. It is well documented that activation of naive CD4^+ T cells relies predominantly on cNF-κB and not the ncNF-κB pathway ([22]). […]
For cell sorting, peripheral CD4^+ T cells were first enriched by negative selection with the use of magnetic beads and column purification (nonhuman primate CD4^+ T cell isolation kit; Miltenyi). Enriched CD4^+ T cells were then stained with viability dye (Live/Dead Aqua) and previously determined volumes of the following fluorescently conjugated MAbs: CD3-AF700 (clone SP34-2), CD8-APC-Cy7 (clone SK1), CD95-PE-Cy5 (clone DX2), CD62L-PE (clone SK11), and CCR7-PE-Cy7 (clone 3D12) from BD Biosciences; CD4-BV650 from BioLegend. […]
Naïve and memory CD4^+ T cells were treated with 100 or 1000 nM AZD5582 for 24 h and then stored as a dry pellet until RNA extraction. […] Gene expression was normalized to TATA box binding protein (TBP) and the comparative threshold cycle (Ct) method (ΔΔCt) was used for relative quantification of gene expression. […]

Compound: CN[C@@H](C)C(=O)N[C@H](C(=O)N1CCC[C@H]1C(=O)N[C@H]1c2ccccc2C[C@H]1OCC#CC#CCO[C@@H]1Cc2ccccc2[C@@H]1NC(=O)[C@@H]1CCCN1C(=O)[C@@H](NC(=O)[C@H](C)NC)C1CCCCC1)C1CCCCC1 [AZD5582]
- SIV reactivation, events >60 copies/ml (SIVmac239): 64/140
- SIV reactivation, events >60 copies/ml (percent) (SIVmac239): 46%
- SIV reactivation, per animal (RMs with on-ART viremia) (SIVmac239): 5/9
- SIV reactivation, per animal (percent) (SIVmac239): 56%
- Animals whose CD4+ T cell cultures showed increased SIV RNA expression in supernatant [1]: 3/5
- AUC0-2h [2]: 512 ng·h/mL
- Cmax [2]: 802 ng/mL
- Fold induction of BIRC3 gene expression, naive versus memory CD4+ T cells [3]: No significant difference
- Fold induction of NFkB2 gene expression, naive versus memory CD4+ T cells [3]: No significant difference
